Data from PMC3775607 (Chembiochem : a European journal of chemical biology, 2012).

Key:
p38α [1] = target: T1, p38α (Mus musculus, UniProt P47811); assay: competition with covalent DRS probe […] at […], in-gel fluorescence; assay type: binding
p38α [2] = target: T1, p38α; assay: radiometric kinase assay with GST-ATF2; assay type: biochemical

T1 sequence (P47811 2-360): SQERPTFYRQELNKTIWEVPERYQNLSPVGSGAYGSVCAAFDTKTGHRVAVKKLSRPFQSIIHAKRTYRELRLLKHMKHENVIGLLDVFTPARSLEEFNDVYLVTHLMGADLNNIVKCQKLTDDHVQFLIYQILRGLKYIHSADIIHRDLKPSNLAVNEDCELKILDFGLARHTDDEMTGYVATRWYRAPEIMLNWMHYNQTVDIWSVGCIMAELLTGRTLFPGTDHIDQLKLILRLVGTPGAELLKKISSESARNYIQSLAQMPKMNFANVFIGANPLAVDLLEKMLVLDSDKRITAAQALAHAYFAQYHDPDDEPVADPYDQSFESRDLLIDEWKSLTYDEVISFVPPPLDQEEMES

SMILES: O=C(/C=C/c1ccc(O)c(O)c1)OCCc1ccccc1 [CAPE, caffeic acid phenethyl ester]
- competition with covalent DRS probe 3 at 200 μM, in-gel fluorescence (p38α [1]): rooperol shows the strongest inhibition, followed closely by the honey bee propolis-derived caffeic acid phenethyl ester (CAPE

SMILES: Oc1ccc(C#CC/C=C/c2ccc(O)c(O)c2)cc1O [rooperol]
- IC50 (p38α [2]): 18.6 µM
